Test system: unresectable metastatic colorectal cancer
Test: Study 3: maintenance XCEL after CR; RFS, PFS, OS
Assay type: in vivo, human
Text: The institutional review board approved this study. […] All patients had clinical examinations, laboratory and CT scan every 2-3 months.
The principal investigator and two board-certified radiologists reviewed all the CT scan images. CR was defined according to the RECIST criteria as complete disappearance of measurable or none-measurable disease. Effective CR (eCR) was coined to describe normalization of an anatomical structure (e.g. nodes) that cannot regress completely. Confirmed CR included those patients who had CR by meeting the RECIST criteria or had achieved eCR or pathological CR. Near CR (nCR) were defined as almost complete disappearance (95-99%) of measurable disease on CT scan. Relapse free survival (RFS) was defined as the time from first radiologic CR to first recurrence, progression, or death. […] […] Treatment related toxicity was graded in accordance with the National Cancer Institute Common Toxicity Criteria for Adverse Events, version 3.0.
Continuous variables were summarized using the median (range) and categorical variables were summarized in frequency tables. Patients were censored at the date of last follow-up if their disease had not progressed or if they had not died. The death date was ascertained by searching (ssdi.genealogy.rootsweb.com) using social security numbers or phone follow-up. Therefore, it was possible for censored OS times to be greater than censored RFS and PFS times. Kaplan-Meier estimates for RFS, PFS, and OS were calculated, and group comparisons made using log-rank tests.

[1] = Disease-free interval prior to metastasis <6 mo
[2] = Disease-free interval prior to metastasis ≧6 mo
[3] = Response to first-line therapy no
[4] = Response to first-line therapy yes

`Cc1ccc(-c2cc(C(F)(F)F)nn2-c2ccc(S(N)(=O)=O)cc2)cc1` [XCEL] was tested, and the “pathological CR rate (observed)” value (1/19) was 5%, the “two-year RFS” value (14 unresected and R1-2 resected patients) was 71% and the “2-year RFS (95% CI)” value (All patients) was 0.57 (0.39, 0.85). The “3-year OS (95% CI)” value (All patients) was 0.79 (0.59, 1.00), the “2-year RFS (95% CI)” value [1] was 0.64 (0 44, 1.00) and the “3-year OS (95% CI)” value [1] was 0.75 (0.54, 1.00). For the same compound, the “2-year RFS (95% CI)” value [2] was 0.50 (0.28, 0.88), the “3-year OS (95% CI)” value [2] was 0.74 (0.39, 1.00) and the “2-year RFS (95% CI)” value (Extrahepatic no) was 0.52 (0.15, 1.00). For the same compound, the “3-year OS (95% CI)” value (Extrahepatic no) was 0.79 (0.66, 1.00), the “2-year RFS (95% CI)” value (Extrahepatic yes) was 0.50 (.20, 1.00) and the “3-year OS (95% CI)” value (Extrahepatic yes) was 0.67 (0.55, 1.00). For the same compound, the “2-year RFS (95% CI)” value (LDH Abnormal) was 0.33 (0.07, 1.00), the “3-year OS (95% CI)” value (LDH Abnormal) was 0.50 (0.13, 1.00) and the “2-year RFS (95% CI)” value (LDH Normal) was 0.62 (0.42, 0.91). The “3-year OS (95% CI)” value (LDH Normal) was 0.85 (0.68, 1.00), the “2-year RFS (95% CI)” value (Maintenance XCEL no) was 0.00 and the “3-year OS (95% CI)” value (Maintenance XCEL no) was 0.38 (0.08, 1.00). For the same compound, the “2-year RFS (95% CI)” value (Metastatic Number non-solitary) was 0.60 (0.36, 1.00), the “3-year OS (95% CI)” value (Metastatic Number non-solitary) was 0.60 (0 29, 1.00) and the “2-year RFS (95% CI)” value (Metastatic Number solitary) was 0.56 (0.31, 1.00). For the same compound, the “3-year OS (95% CI)” value (Metastatic Number solitary) was 0.89 (0.71, 1.00), the “2-year RFS (95% CI)” value (Metastectomy R0) was 0.20 (0.03, 1.00) and the “3-year OS (95% CI)” value (Metastectomy R0) was 0.60 (0.29, 1.00). The “2-year RFS (95% CI)” value (Metastectomy none/R1-2) was 0.71 (0.51, 0.99), the “3-year OS (95% CI)” value (Metastectomy none/R1-2) was 0.60 (0.80, 1.00) and the “3-year PFS” value (R0-2 resected patients) was 37%. For the same compound, the “two-year RFS” value (R0 resected patients excluding the one pathological CR patient) was 0%, the “2-year RFS (95% CI)” value (Radiation no) was 0.69 (1.40, 1.00) and the “3-year OS (95% CI)” value (Radiation no) was 0.75 (0.43, 1.00). The “2-year RFS (95% CI)” value (Radiation yes) was 0.50 (0.28, 0.88), the “3-year OS (95% CI)” value (Radiation yes) was 0.79 (0.56, 1.00) and the “2-year RFS (95% CI)” value [3] was 0.40 (0.25, 1.00). The “3-year OS (95% CI)” value [3] was 0.65 (0.49, 1.00), the “2-year RFS (95% CI)” value [4] was 0.58 (0.39, 1.00) and the “3-year OS (95% CI)” value [4] was 1.00. For the same compound, the “2-year RFS (95% CI)” value (Stage at Diagnosis II/III) was 0.40 (0.19, 0.85), the “3-year OS (95% CI)” value (Stage at Diagnosis II/III) was 0.77 (0.53, 1.00) and the “2-year RFS (95% CI)” value (Stage at Diagnosis IV) was 0.78 (0.55, 1.00). The “3-year OS (95% CI)” value (Stage at Diagnosis IV) was 0.83 (0.58, 1.00), the “2-year RFS (95% CI)” value (Tumor size <8 cm) was 0.62 (0.39, 1.00) and the “3-year OS (95% CI)” value (Tumor size <8 cm) was 1.00. The “2-year RFS (95% CI)” value (Tumor size ≧8 cm) was 0.40 (0.14, 1.00), the “3-year OS (95% CI)” value (Tumor size ≧8 cm) was 0.60 (0.29, 1.00) and the “Two-year RFS” value (all 19 patients) was 57%. For the same compound, the “median RFS” value (all 19 patients) was “not reached”, the “CEA or CA19.9 during CR” value (all patients with elevated serum CEA or CA19.9) was “normalized” and the “3-year PFS” value (confirmed CR patients) was 100%. The CR (eight of nine first-line irinotecan responders, XCEL alone or with radiation) was 88%, the “two-year RFS” value (five R0 resected patients) was 20% and the “estimated 3-year survival rate” value (from CR) was 79%. The “four year OS” value (from CR, maintenance XCEL) was 93%, the “median OS” value (from XCEL) was 51.9 months and the “estimated 3-year survival rate” value (from diagnosis) was 95%. The “median OS” value (from onset of metastasis) was 73.3 months, the “median time from CR to relapse” value (in vivo) was 13.1 months and the “relapse while on XCEL” value (maintenance XCEL) was “no patient relapsed while on XCEL”. For the same compound, the “Two-year RFS estimate” value (maintenance XCEL group) was 73%, the “3-year PFS” value (unconfirmed CR patients) was 0% and the “3 year RFS” value (whole cohorts) was 57%. The “Two-year RFS estimate” value (without maintenance XCEL) was 0%.

From patent publication US9260760B2, “Method for determining complete response to anticancer therapy” (Board of Regents, The University of Texas System, priority 2012, dated 2016)
